Laboratory results as given in ChEMBL document CHEMBL3822399, “Discovery of novel, high potent, ABC type PTP1B inhibitors with TCPTP selectivity and cellular activity” (Eur J Med Chem, 2016).
The source made the active and inactive calls. The calls are words filed in the database; no cut-off is given here.

What was measured:
[1] = biological target: T1, Tyrosine-protein phosphatase non-receptor type 1 (Homo sapiens, UniProt P18031); assay: Inhibition of recombinant PTP1B (unknown origin) using pNPP as substrate incubated for 30 mins
T1 sequence (P18031 whole entry): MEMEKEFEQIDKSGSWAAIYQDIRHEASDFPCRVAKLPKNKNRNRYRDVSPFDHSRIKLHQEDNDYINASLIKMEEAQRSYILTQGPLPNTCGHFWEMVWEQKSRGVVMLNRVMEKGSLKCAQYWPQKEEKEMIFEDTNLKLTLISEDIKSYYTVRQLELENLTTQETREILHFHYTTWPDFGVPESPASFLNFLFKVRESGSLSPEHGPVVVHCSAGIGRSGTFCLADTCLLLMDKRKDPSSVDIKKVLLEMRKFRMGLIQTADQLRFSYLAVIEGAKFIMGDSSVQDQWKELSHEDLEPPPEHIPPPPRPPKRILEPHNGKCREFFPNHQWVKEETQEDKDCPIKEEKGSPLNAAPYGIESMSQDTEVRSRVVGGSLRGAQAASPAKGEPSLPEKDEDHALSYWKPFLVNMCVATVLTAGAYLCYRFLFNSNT

[2] = biological target: T2, Tyrosine-protein phosphatase non-receptor type 1 (Homo sapiens) (UniProt P18031); assay: Inhibition of recombinant PTP1B (unknown origin) using pNPP as substrate at 25 uM incubated for 30 mins relative to control
T2 sequence (whole entry): T1 sequence (P18031 whole entry)

[3] = biological target: T3, Tyrosine-protein phosphatase non-receptor type 11 (Homo sapiens, UniProt Q06124); assay: Inhibition of human SHP2 using pNPP as substrate incubated for 30 mins
T3 sequence (Q06124 whole entry): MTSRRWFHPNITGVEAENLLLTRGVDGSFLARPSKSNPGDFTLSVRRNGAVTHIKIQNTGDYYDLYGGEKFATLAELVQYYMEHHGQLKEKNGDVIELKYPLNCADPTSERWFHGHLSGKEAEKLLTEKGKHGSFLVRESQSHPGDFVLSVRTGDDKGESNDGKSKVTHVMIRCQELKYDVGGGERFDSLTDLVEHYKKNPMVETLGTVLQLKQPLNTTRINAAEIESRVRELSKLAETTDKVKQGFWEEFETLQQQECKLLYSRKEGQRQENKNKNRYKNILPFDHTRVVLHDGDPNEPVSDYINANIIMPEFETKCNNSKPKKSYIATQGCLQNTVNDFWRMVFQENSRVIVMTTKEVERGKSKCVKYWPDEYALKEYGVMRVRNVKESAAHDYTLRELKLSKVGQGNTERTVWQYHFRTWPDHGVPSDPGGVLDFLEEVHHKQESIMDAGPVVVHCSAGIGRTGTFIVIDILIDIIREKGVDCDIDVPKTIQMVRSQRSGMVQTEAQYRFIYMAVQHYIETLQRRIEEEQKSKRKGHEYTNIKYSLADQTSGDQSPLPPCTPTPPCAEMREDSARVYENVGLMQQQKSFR

[4] = biological target: T4, Receptor-type tyrosine-protein phosphatase F (Homo sapiens, UniProt P10586); assay: Inhibition of human LAR using pNPP as substrate incubated for 30 mins
T4 sequence (P10586 whole entry): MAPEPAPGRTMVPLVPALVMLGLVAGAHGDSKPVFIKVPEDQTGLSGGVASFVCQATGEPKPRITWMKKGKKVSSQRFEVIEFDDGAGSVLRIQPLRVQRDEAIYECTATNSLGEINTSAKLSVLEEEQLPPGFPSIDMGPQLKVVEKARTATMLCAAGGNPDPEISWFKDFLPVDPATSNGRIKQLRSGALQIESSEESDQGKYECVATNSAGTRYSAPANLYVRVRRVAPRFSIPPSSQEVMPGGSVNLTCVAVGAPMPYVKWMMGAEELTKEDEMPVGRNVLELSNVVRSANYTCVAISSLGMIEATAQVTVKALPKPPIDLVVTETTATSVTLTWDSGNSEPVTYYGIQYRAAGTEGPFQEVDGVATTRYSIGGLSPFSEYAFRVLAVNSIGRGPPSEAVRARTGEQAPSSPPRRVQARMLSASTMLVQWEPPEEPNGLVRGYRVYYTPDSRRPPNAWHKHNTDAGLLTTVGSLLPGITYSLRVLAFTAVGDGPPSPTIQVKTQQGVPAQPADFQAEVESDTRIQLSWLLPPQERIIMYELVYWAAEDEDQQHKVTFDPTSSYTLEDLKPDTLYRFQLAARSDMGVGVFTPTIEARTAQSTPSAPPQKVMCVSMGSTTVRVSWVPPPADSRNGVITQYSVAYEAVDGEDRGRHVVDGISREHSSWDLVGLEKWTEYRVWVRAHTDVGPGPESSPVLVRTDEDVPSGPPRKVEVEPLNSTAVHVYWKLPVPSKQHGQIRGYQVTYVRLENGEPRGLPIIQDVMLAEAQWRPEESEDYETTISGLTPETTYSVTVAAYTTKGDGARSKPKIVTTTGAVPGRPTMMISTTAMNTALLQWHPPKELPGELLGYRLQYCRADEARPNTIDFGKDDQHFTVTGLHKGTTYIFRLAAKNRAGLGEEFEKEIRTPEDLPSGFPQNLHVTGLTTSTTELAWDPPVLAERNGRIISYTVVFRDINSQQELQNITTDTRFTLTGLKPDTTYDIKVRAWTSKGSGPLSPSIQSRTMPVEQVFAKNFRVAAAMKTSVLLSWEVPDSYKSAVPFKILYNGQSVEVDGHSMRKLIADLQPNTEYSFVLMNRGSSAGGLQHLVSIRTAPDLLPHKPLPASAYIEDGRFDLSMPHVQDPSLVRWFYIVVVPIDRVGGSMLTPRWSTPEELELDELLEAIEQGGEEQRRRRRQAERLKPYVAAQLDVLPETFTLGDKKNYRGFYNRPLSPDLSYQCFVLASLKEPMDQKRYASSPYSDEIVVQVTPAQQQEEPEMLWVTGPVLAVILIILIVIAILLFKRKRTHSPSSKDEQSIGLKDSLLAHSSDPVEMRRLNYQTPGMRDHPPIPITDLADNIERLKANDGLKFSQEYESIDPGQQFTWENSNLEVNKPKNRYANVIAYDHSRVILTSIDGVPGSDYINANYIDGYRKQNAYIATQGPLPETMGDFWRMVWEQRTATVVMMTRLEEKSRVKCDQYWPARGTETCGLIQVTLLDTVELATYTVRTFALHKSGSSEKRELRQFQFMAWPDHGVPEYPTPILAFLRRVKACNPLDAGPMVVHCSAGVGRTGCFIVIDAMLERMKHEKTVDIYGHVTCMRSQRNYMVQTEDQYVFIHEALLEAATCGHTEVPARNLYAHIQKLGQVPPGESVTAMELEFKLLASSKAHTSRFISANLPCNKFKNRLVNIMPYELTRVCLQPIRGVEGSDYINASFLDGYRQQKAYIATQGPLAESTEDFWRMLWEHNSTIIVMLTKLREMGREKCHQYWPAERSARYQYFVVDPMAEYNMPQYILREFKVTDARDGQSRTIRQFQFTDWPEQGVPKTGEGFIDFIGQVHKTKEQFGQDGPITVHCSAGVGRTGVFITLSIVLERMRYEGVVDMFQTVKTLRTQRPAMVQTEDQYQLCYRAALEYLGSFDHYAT

[5] = biological target: T5, Tyrosine-protein phosphatase non-receptor type 6 (Homo sapiens, UniProt P29350); assay: Inhibition of human SHP1 using pNPP as substrate incubated for 30 mins
T5 sequence (P29350 whole entry): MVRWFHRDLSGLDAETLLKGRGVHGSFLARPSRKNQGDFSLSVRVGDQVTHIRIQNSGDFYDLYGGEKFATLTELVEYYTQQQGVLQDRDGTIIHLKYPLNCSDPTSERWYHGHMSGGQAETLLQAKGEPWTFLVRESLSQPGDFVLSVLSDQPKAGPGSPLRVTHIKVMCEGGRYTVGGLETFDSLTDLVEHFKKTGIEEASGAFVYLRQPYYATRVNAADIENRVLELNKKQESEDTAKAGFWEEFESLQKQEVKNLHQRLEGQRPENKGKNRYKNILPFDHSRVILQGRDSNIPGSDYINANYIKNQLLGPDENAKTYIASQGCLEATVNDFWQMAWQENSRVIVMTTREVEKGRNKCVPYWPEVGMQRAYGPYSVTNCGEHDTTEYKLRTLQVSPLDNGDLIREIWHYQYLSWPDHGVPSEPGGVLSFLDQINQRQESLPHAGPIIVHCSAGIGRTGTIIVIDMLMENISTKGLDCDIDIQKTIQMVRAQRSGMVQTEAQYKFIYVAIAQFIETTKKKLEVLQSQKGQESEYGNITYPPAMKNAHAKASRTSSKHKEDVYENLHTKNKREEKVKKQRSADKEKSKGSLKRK

Homo sapiens = species: Homo sapiens; assay: Selectivity ratio of IC50 for human SHP1 to IC50 for recombinant PTP1B (unknown origin)
[6] = biological target: T4, Receptor-type tyrosine-protein phosphatase F; assay: Inhibition of human LAR using pNPP as substrate at 25 uM incubated for 30 mins relative to control
[7] = biological target: T6, Tyrosine-protein phosphatase non-receptor type 11 (Homo sapiens) (UniProt Q06124); assay: Inhibition of human SHP2 using pNPP as substrate at 25 uM incubated for 30 mins relative to control
T6 sequence (whole entry): T3 sequence (Q06124 whole entry)

[8] = biological target: T7, Tyrosine-protein phosphatase non-receptor type 2 (Homo sapiens, UniProt P17706); assay: Inhibition of human TCPTP using pNPP as substrate incubated for 30 mins
T7 sequence (P17706 whole entry): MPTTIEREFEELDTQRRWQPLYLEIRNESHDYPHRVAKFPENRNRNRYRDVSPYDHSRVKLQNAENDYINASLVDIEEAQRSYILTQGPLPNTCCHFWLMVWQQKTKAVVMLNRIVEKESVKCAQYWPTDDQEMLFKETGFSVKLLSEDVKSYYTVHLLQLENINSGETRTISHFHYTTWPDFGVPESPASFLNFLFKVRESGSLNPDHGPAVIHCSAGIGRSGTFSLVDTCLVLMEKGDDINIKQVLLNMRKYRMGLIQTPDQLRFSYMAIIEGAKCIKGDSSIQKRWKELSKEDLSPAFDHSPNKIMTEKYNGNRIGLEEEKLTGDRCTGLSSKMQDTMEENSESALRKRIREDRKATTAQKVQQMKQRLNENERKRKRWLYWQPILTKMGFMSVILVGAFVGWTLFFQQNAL

[9] = biological target: T8, Tyrosine-protein phosphatase non-receptor type 1 (Rattus norvegicus) (UniProt P20417); assay: Inhibition of PTP1B in rat L6 cells assessed as increase in insulin-stimulated 2-NBDG uptake at 10 uM preincubated for 4 hrs followed by insulin stimulation for 10 mins and subsequent addition of 2-NBDG measured after 30 mins by fluorescence assay relative to control; type: cell-based; set-up: scale not given: the % may be the effect or the level left
T8 sequence (whole entry): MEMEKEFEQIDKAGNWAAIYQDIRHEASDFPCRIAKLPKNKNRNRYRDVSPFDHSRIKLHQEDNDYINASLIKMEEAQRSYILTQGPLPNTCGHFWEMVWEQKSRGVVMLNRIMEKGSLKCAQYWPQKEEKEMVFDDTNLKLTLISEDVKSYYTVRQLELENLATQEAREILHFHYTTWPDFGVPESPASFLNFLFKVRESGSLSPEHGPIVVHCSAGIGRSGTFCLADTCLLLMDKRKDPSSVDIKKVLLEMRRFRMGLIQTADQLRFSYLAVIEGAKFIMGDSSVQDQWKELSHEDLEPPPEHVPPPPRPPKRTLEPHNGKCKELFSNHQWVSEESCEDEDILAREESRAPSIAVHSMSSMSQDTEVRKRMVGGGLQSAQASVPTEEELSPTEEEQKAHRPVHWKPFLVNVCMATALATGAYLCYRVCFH

[10] = biological target: T8, Tyrosine-protein phosphatase non-receptor type 1 (Rattus norvegicus); assay: Inhibition of PTP1B in rat L6 cells assessed as increase in insulin-stimulated 2-NBDG uptake at 5 uM preincubated for 4 hrs followed by insulin stimulation for 10 mins and subsequent addition of 2-NBDG measured after 30 mins by fluorescence assay relative to control; type: cell-based; set-up: scale not given: the % may be the effect or the level left
CHO = assay: Inhibition of PTP1B in CHO cells expressing human IR assessed as increase in insulin-mediated IR-beta phosphorylation at tyrosine residue 20 at 15 to 30 uM preincubated for 4 hrs followed by insulin stimulation measured after 10 mins by western blot analysis; type: cell-based; conditions: Cricetulus griseus
[11] = biological target: T8, Tyrosine-protein phosphatase non-receptor type 1 (Rattus norvegicus); assay: Inhibition of PTP1B in rat L6 cells assessed as increase in insulin-stimulated 2-NBDG uptake at 20 uM preincubated for 4 hrs followed by insulin stimulation for 10 mins and subsequent addition of 2-NBDG measured after 30 mins by fluorescence assay relative to control; type: cell-based; set-up: scale not given: the % may be the effect or the level left
[12] = biological target: T5, Tyrosine-protein phosphatase non-receptor type 6; assay: Inhibition of human SHP1 using pNPP as substrate at 25 uM incubated for 30 mins relative to control
[13] = biological target: T9, Tyrosine-protein phosphatase non-receptor type 2 (Homo sapiens) (UniProt P17706); assay: Inhibition of human TCPTP using pNPP as substrate at 25 uM incubated for 30 mins relative to control
T9 sequence (whole entry): T7 sequence (P17706 whole entry)

## CCCCOc1ccc(N(Cc2ccc(N(CC(=O)OC)S(C)(=O)=O)cc2)S(=O)(=O)Cc2ccccc2)cc1C(=O)OC
[1]
  IC50: 4830 nM

## COC(=O)CN(c1ccc(CN(c2ccc(OCc3ccccc3)cc2)S(=O)(=O)Cc2ccccc2)cc1)S(C)(=O)=O
[1]
  IC50: 16000 nM

## COC(=O)CN(c1ccc(CN(c2ccc(OCc3cccc(C)c3)c(C(=O)OC)c2)S(=O)(=O)Cc2ccccc2)cc1)S(C)(=O)=O
[2]
  inhibition: < 50%

## CCOc1ccc(N(Cc2ccc(N(CC(=O)OC)S(C)(=O)=O)cc2)S(=O)(=O)Cc2ccccc2)cc1C(=O)OC
[2]
  inhibition: < 50%

## CC1(C)CC[C@]2(C(=O)O)CC[C@]3(C)C(=CC[C@@H]4[C@@]5(C)CC[C@H](O)C(C)(C)[C@@H]5CC[C@]43C)[C@@H]2C1 [OLEANOLIC_ACID]
[3]
  IC50: 11600 nM
[4]
  IC50: 22300 nM

## COC(=O)CN(c1ccc(CN(c2ccc(OCc3ccccc3)c(C(=O)OC)c2)S(=O)(=O)Cc2ccccc2)cc1)S(C)(=O)=O
[5]
  IC50: 6460 nM
Homo sapiens
  Ratio IC50: 18
[1]
  IC50: 355 nM
[6]
  inhibition: < 50%
[7]
  inhibition: < 50%
[8]
  IC50: 427 nM

## COC(=O)CN(c1ccc(CN(c2ccc(OCc3ccc(C)cc3)c(C(=O)OC)c2)S(=O)(=O)Cc2ccccc2)cc1)S(C)(=O)=O
[5]
  IC50: 2450 nM
[9]
  Activity: 19%
Homo sapiens
  Ratio IC50: 49
[1]
  IC50: 50 nM
[3]
  IC50: 2160 nM
[10]
  Activity: 16%
[8]
  IC50: 760 nM
CHO
  inhibition: Active
[4]
  IC50: 12600 nM
[11]
  Activity: 38.1%

## CCCOc1ccc(N(Cc2ccc(N(CC(=O)OC)S(C)(=O)=O)cc2)S(=O)(=O)Cc2ccccc2)cc1C(=O)OC
[12]
  inhibition: < 50%
[9]
  Activity: 26.1%
[1]
  IC50: 936 nM
[13]
  inhibition: < 50%
[10]
  Activity: 6.9%
[6]
  inhibition: < 50%
[7]
  inhibition: < 50%
[11]
  Activity: 27.7%
